{"source": "patent US12447135B2", "about": "(University of South Florida, priority 2021, dated 2025)", "key": {"SK-N-SH cells [1]": {"system": "SK-N-SH cells", "assay": "Aβ-induced neurotoxicity, MTT viability assay", "assay_type": "cell-based, human", "procedure": "To determine the impact of FFAR2 inhibition on Aβ-induced neuronal cell toxicity, the MTT viability assay was performed (Ronicke et al., 2008). SK-N-SH cells (1×10^3 cells per well) were plated in a 96-well plate containing DMEM medium supplemented with 10% FBS and 1% antibiotics and grown at 37° C. for 24 h. Then, media was removed, and cells were washed with PBS before being replenished with DMEM media containing 1% FBS and 10 μM FFAR2 inhibitor (CATPB, Tocris) and incubated at 37° C. for 2 h. Then, cells were treated with Aβ 25-32 peptide (25 μM, Sigma) and incubated for 4 h. Afterward, the media was replaced with 100 μl of fresh media, and 10 μl of MTT reagent (5 mg/ml in phosphate buffer [pH 7.2]) was added and mixed in each well before an additional 4 h incubation. Then, DMSO (50 μl) was added in each well and mixed thoroughly to dissolve formazan crystals. The absorbance was measured at 570 nm."}, "proteasome [2]": {"system": "proteasome", "assay": "Proteasome activity assay in C. elegans", "assay_type": "in vivo", "settings": "C. elegans (CL2006)", "procedure": "(§1) The CL2006 strain, SK-N-SH cells, and brain tissues were sonicated in a lysis buffer (150 mM NaCl, 50 mM HEPES, 2 mM DTT, 20 mM NaF, 5 mM EDTA, 2.5 mM sodium pyrophosphate, 1 mM sodium orthovanadate, and 1 mM α-glycerophosphoric acid) and then centrifuged at 15,000 g at 4° C. for 15 min. Total protein was assayed using BCA kit and 20 μg protein was mixed with 140 μM suc-leu-leu-val-tyr-7-amino-4-methylcou-marin (AMC) in a proteasome activity assay buffer (150 mM NaCl, 50 mM HEPES [pH 7.4], 5 mM ATP, and 5 mM EDTA), and then the fluorescence (excitation 380 nm and emission 460 nm) was measured every 10 min over 3 h using a microplate reader. The assay was performed with and without the proteasome inhibitor MG132 (10 μM)."}, "FFAR2 signaling": {"system": "FFAR2 signaling", "assay": "cAMP-Glo assay, forskolin-induced cAMP in SK-N-SH cells", "assay_type": "cell-based, human", "settings": "10 μM compound, 10 μM forskolin", "procedure": "FFAR2 is a Gi/o signaling receptor, which reduces cytosolic cAMP (Falomir-Lockhart et al., 2019). To determine the FFAR2 signaling activating potential of selected compounds, the cAMP-Glo™ Assay was used to measure intracellular cAMP. SK-N-SH cells (1×10^3 cells per well) were plated in a white 96-well plate for 24 h and then treated with 10 μM compounds and 10 μM forskolin (a positive control) dissolved in induction buffer. The cAMP levels were detected using a Luminescence Microplate Reader."}, "proteasome [3]": {"system": "proteasome", "assay": "Proteasome activity assay in brain of APP/PS1 mice", "assay_type": "in vivo", "settings": "80 mg/kg daily oral gavage, 3 months", "procedure": "Brains were collected and immediately homogenized in proteasome lysis buffer and proteasome activity was measured as described below. All the animal procedures and experiments were approved by the institutional animal care and use committee (IACUC) of the Wake Forest School of Medicine and the University of South Florida.\nas §1"}, "SK-N-SH cells [4]": {"system": "SK-N-SH cells", "assay": "Aβ accumulation in SK-N-SH cells (western blot)", "assay_type": "cell-based, human", "settings": "vs Aβ-only treated controls, FFAR2 dependent", "procedure": "(§2) To determine the FFAR2 signal activating property of selected compounds, SK-N-SH cells were treated with 10 μM of shortlisted compounds for 30 min at 37° C. and harvested for total protein extraction. Cells were harvested after 30 min of incubation because ERK1/2 phosphorylation upon FFAR2 activation is a quick event (Jiao et al., 2002; Bhattacharjee et al., 2010). Total protein from the cells was extracted using a lysis buffer [consisting of 10 mmol/L Tris (pH 7.6), 150 mmol/L NaCl, 10 mmol/L Sodium orthovanadate, 10 mmol/L Sodium Pyrophosphate, 100 mmol/L Sodium fluoride, 1 mmol/L EDTA, 1 mmol/L EGTA, 1% Triton X-100, 0.5% NP-40 and a cocktail of protease inhibitors (Roche); Yadav et al., 2011, 2017; Ahmadi et al., 2019, 2020a]. After sonication, cell extracts were centrifuged at 8,000×g for 10 min at 4° C., and the supernatant was separated in a fresh tube. The total protein concentration of the supernatant was measured using a BCA protein assay kit. […] Band densities were also quantified using NIH ImageJ software. β-actin was used as an internal control."}, "SK-N-SH cells [5]": {"system": "SK-N-SH cells", "assay": "Total protein ubiquitination, western blot (P4D1)", "assay_type": "cell-based, human", "procedure": "as §2"}, "SK-N-SH cells [6]": {"system": "SK-N-SH cells", "assay": "Lysosome activity in SK-N-SH cells", "assay_type": "cell-based, human", "settings": "10 μM, vs controls", "procedure": "Bafilomycin was used as an inhibitor of cellular autophagy/lysosomal activity. The lysosomal activity was assayed using the Enz@ lysozyme assay kit (E-22013, Molecular Probes) and the fluorescence was measured in a fluorescence microplate reader using excitation and emission wavelengths of 494 nm and 518 nm, respectively (Biotek Instruments, VT, USA)."}, "C. elegans CL4176": {"system": "C. elegans CL4176", "assay": "Paralysis assay in C. elegans CL4176", "assay_type": "in vivo", "settings": "CL4176 worms, 10 μM, vs non-treated controls", "procedure": "For paralysis assays, synchronized eggs of CL4176 were kept at 16° C. for 48 h, and the worms were transferred onto NGM plates. […] Counting was performed at 2 h intervals, typically after 14 h, at 23° C., and until the last worm became paralyzed. […] Each C. elegans experiment was conducted with at least 100 worms."}, "[7]": {"system": "C. elegans overexpressing human Aβ", "assay": "Aβ accumulation in C. elegans (thioflavin S staining, western blot)", "assay_type": "in vivo", "settings": "CL2006 worms overexpressing human Aβ, vs DMSO controls", "procedure": "as §2\nThen, the worm bodies were permeabilized in 1% Triton X-100, 125 mM Tris (pH 7.4), and 5% fresh β-mercaptoethanol. […] A total of 20 worms were counted from each group."}}}
{"compound": "CC12CCC(C1)C(C)(C)C2O", "note": "(stereo not drawn) [Fenchol]", "values": [{"measurement": "protection in cell viability with FFAR2 inhibitor", "setting": "SK-N-SH cells [1]; Fenchol together with FFAR2 inhibitor, Aβ", "result": "no significant protection"}, {"measurement": "Aβ-induced neuronal cell death", "setting": "SK-N-SH cells [1]; vs DMSO controls", "result": "significantly reduced"}, {"measurement": "proteasomal activity", "setting": "proteasome [2]", "result": "significantly increased"}, {"measurement": "cAMP upon Forskolin-stimulation, ascending order", "setting": "FFAR2 signaling", "result": "Fenchol<Carvamenthenol<α-Terpineol<Carene<Pentanone<Octopamine<Camphene"}, {"measurement": "decrease in cAMP upon Forskolin-stimulation", "setting": "FFAR2 signaling", "result": "highest decrease"}, {"measurement": "proteasomal activity", "setting": "proteasome [3]; APP/PS1 mice cortex", "result": "significantly increased"}, {"measurement": "proteasomal activity", "setting": "proteasome [3]; APP/PS1 mice hippocampus", "result": "significantly increased"}, {"measurement": "Aβ-accumulation", "setting": "SK-N-SH cells [4]", "result": "significantly reduced"}, {"measurement": "protein ubiquitinylation", "setting": "SK-N-SH cells [5]", "result": "did not change"}, {"measurement": "lysosomal activity", "setting": "SK-N-SH cells [6]", "result": "significantly increased"}, {"measurement": "paralytic attacks", "setting": "C. elegans CL4176", "result": "decreased"}, {"measurement": "Aβ accumulation", "setting": "[7]", "result": "significantly reduced"}]}
